Measured values from patent US20110296540A1, “ASSAY FOR SCREENING ANTIDEPRESSANTS” (priority 2008, published 2011).
Read-outs that look alike come from different tables or passages of the source.

How the values were obtained:
[1] = system: mineralocorticoid receptor
Description: (§1) Tissue preparation: Animals were sacrificed by cervical dislocation. Selected brain regions were dissected and placed in tubes containing RNAlater (Ambion), incubated at 4 degrees C. overnight and stored at −80 degrees C. until processing.
(§2) Brain regions (10-20 mg) were homogenized for 20 sec at medium speed in 1.25 ml lysis/denaturation buffer (Ambion) using an Autogizer™ (Tomtec). Total RNA was isolated from 100-300 ul aliquots of the homogenate using the RNAqueous™ 96 automated kit (Ambion) according to the manufacturer's protocol. A second DNase I digestion was incorporated after elution of the RNA from the Ambion filter plate to remove residual genomic DNA. Digestion was performed for 1 hr at room temperature using DNase I™ (Invitrogen) and the buffer supplied with the enzyme. After inactivation of the DNase with EDTA and heat, the RNA was desalted with a Multiscreen™ filter plate (Millipore) and stored at −80° C. Conversion of total RNA into first strand cDNA was accomplished with Superscript II™ enzyme (Invitrogen) followed by desalting over a Multiscreen plate. Approximately 1 ug of total RNA was used for each cDNA reaction. The yield of cDNA was determined using Quant-iT Oligreen™ reagent (Invitrogen). Prior to the Oligreen assay, total RNA carried over from the cDNA reaction was hydrolyzed with NaOH and heat, followed by neutralization with Tris buffer. This treatment eliminates any contribution of the RNA to the Oligreen signal. The unknown cDNA samples were compared to a standard curve derived using a 18mer oligonucleotide. Replica cDNA plates containing 3 ng of cDNA per well were prepared using an Evolution P3™ workstation (PerkinElmer). Each animal in a given experiment was represented by one well on each plate and each plate always contained the control and treatment groups.
(§3) Quantitative PCR (qPCR) was carried out in 25 ul reactions using Full Velocity™ enzyme (Stratagene). Plates were run on either a Stratagene MX3000P™ or an Applied Biosystems 7900 HT instrument. The cycling parameters were set based on recommendations from the enzyme manufacturer. One gene expression profile was analyzed per PCR plate and duplicate plates were run for each gene. Two housekeeping genes, cyclophilin and GAPDH, were included in the gene list and were used to normalize the expression results obtained from the other genes of interest (see data analysis section). The sequences of the primers and probes for each gene are listed in supplemental table 1. Duplicate cycle thresholds (Ct values) were obtained for each gene/region and averaged. The values for cyclophilin and GAPDH were combined and used to normalize the expression values from the other genes by employing the delta Ct method. After converting delta Ct values to percentage, the mean and SEM of each animal group (controls and experimental) was calculated.
(§4) Tissue preparation, RNA extraction, DNA preparation and qPCR analysis were described in the materials and methods section. Data analysis and statistics Results from data analyses were expressed as mean±SEM. Data were analyzed using StatView 5.0 software (SAS Institute, Cary, N.C.).

[2] = system: Creb-1 gene
Description: as §1, §2, §3, §4

[3] = system: newborn granule cells; test: Survival and maturation of newborn granule cells (BrdU/DCX/NeuN triple staining); format: in vivo, mice
Description: Immunohistochemistry and confocal imaging. Mice were anesthetized with ketamine/xylazine (100 and 7 mg/kg, respectively) and transcardially perfused (cold saline, followed by 4% cold paraformaldehyde in PBS). […] Serial sections were cut through the entire hippocampus (Franklin and Paxinos, 1997) using a cryostat and stored in PBS. Immunohistochemistry was performed in the following steps: 2 h incubation in 1:1 formamide/2×SSC at 65° C., 5 min rinse in 2×SSC, 30 min incubation in 2N HCl at 37° C., and 10 min rinse in 0.1M boric acid, pH 8.5, 2 h incubation in 0.1M PBS with 0.3% Triton X-100, and 5% normal donkey serum. Sections were then incubated overnight at 4° C. in primary antibodies for doublecortin (goat; 1:500; Santa Cruz Biotechnology, Santa Cruz, Calif.), bromodeoxyuridine (BrdU; rat; 1:100; Serotec, Oxford, UK), and neuronal-specific nuclear protein (NeuN) (mouse; 1:500; Chemicon, Temecula, Calif.). Biotinylated or fluorescent secondary antibodies were used. All secondary antibodies were purchased from Jackson ImmunoResearch (West Grove, Pa.). DCX staining for Sholl analysis was done as follows: sections were rinsed in PBS, treated with 1% H2O2 in 1:1 PBS and methanol for 15 min to quench endogenous peroxidase activity (and to enhance dendritic staining), incubated in 10% normal donkey serum and 0.3% Triton X-100 for 30 min, and then incubated overnight at 4° C. in primary antibody for doublecortin. After secondary antibody incubation, sections were developed using Vector ABC kit and DAB kit. Bright-field images were taken with a Zeiss (Oberkochen, Germany) Axioplan-2 upright microscope. Stereological procedure was used to quantify labeled cells (Malberg et al., 2000 ? ). All cell counting for triple-stained sections were done using a Zeiss LSM 510 META confocal microscope.
As depicted in FIG. 4A, BrdU (75 mg/kg) was given four times over 8 h on day 0 to achieve maximum labeling of proliferating progenitors over a restricted time window. […] Hippocampal sections were triple stained for BrdU, DCX, and NeuN (FIG. 4B,C). Image acquisition and cell counting were performed using a Zeiss LSM META 510 confocal microscopy.

[4] = after 3 weeks of fluoxetine, mean±SEM

SMILES: CNCCC(Oc1ccc(C(F)(F)F)cc1)c1ccccc1 (stereo not drawn) [fluoxetine]
- mineralocorticoid receptor expression ([1]; amygdala): unchanged
- mineralocorticoid receptor expression ([1]; hippocampus): unchanged
- mineralocorticoid receptor expression ([1]; hypothalamus): unchanged
- Creb-1 gene expression ([2]; amygdala): unchanged
- Creb-1 gene expression ([2]; hippocampus): unchanged
- Creb-1 gene expression ([2]; hypothalamus): unchanged
- number of BrdU+NeuN+DCX+ cells ([3]; 3 and 4 weeks of fluoxetine): did not have an effect
- number of cells expressing both BrdU and NeuN ([3]; 3 and 4 weeks of fluoxetine): also increased
- pool of mature BrdU+NeuN+DCX− cells ([3]; 3 and 4 weeks of fluoxetine): significantly increased
- total number of BrdU+ cells in the GCL (survival) ([3]; 3 and 4 weeks of fluoxetine begun 24 h after BrdU): significantly increased
- proportion of BrdU cells that are NeuN+ ([3]; 5 d of fluoxetine): did not change
- transition of BrdU immature cells from DCX+NeuN− stage to DCX+NeuN+ stage ([3]; 5 d of fluoxetine): did not change
- proportion of BrdU+NeuN+ cells that ceased to express DCX [3, 4]: 39.24±1.78
- proportion of BrdU+NeuN+ cells that express DCX [3, 4]: 51.64±3.71%
- survival of immature neurons as measured by BrdU ([3]; subchronic, 5 d): did not change
